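1) Cells in 96-well plates. 2) Compound, 48 h, 5 concentrations. 3) Linear interpolation between surrounding doses. 4) Unreached endpoint = highest concentration. GI50: concentration for 50% inhibition of growth. TGI marks complete inhibition of growth.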 Where a SMILES comes first, the peptide text is derived from it.
Tests used:
Assay in all cases: DTP human tumour cell line panel, 48 h
CCRF-CEM leukemia = tested on: CCRF-CEM leukemia
EKVX NSCLC = tested on: EKVX NSCLC
HS 578T breast = tested on: HS 578T breast
K-562 leukemia = tested on: K-562 leukemia
LOX IMVI melanoma = tested on: LOX IMVI melanoma
MALME-3M melanoma = tested on: MALME-3M melanoma
NCI-H522 lung = tested on: NCI-H522 lung
SN12C renal = tested on: SN12C renal
SW-620 colon = tested on: SW-620 colon
TK-10 renal = tested on: TK-10 renal

SMILES	GI50 (CCRF-CEM leukemia) [µM]	GI50 (EKVX NSCLC) [µM]	TGI (EKVX NSCLC) [µM]	GI50 (HS 578T breast) [µM]	TGI (HS 578T breast) [µM]	GI50 (K-562 leukemia) [µM]	TGI (K-562 leukemia) [µM]	GI50 (LOX IMVI melanoma) [µM]	TGI (LOX IMVI melanoma) [µM]	GI50 (MALME-3M melanoma) [µM]	TGI (MALME-3M melanoma) [µM]	GI50 (NCI-H522 lung) [µM]	TGI (NCI-H522 lung) [µM]	GI50 (SN12C renal) [µM]	TGI (SN12C renal) [µM]	GI50 (SW-620 colon) [µM]	TGI (SW-620 colon) [µM]	GI50 (TK-10 renal) [µM]	TGI (TK-10 renal) [µM]	TGI (CCRF-CEM leukemia) [µM]
COc1ccc(N(CC(=O)NCCC[Te]c2ccccc2)C(=O)CCSC2=C(C)C(=O)c3ccccc3C2=O)cc1	0.508	0.326	2.98	1.56	6.69	2.48	> 22.7	1.5	3.54	2.25	4.51	0.948	3.59	0.84	3.77	2.41	8.03	3.25	8.01	–
CC(C)CC(NC(=O)C(CC(C)C)NC(=O)C(Cc1cnc[nH]1)NC(=O)C(C)NC(=O)C(NC(=O)C(C)NC(=O)C(Cc1c[nH]c2ccccc12)NC(=O)C(CCC(=O)O)NC(=O)C(N)Cc1ccccc1)C(C)C)C(N)=O (configuration not stated) (H-FEWAVAHLL-NH2; configuration not given here)	> 100	> 100	> 100	–	> 12.5	> 100	> 100	–	> 12.5	–	> 12.5	–	> 12.5	> 100	> 100	> 100	> 100	–	–	> 100
C#CCN=C(N/N=C/c1ccc([N+](=O)[O-])o1)NS(=O)(=O)c1cc(C)c(Cl)cc1SCC(N)=O	22.2	17.8	32.2	19.8	49.5	23.7	52.5	8.14	35.2	13.6	27.7	10	23.3	15.5	29.4	4.44	17.1	22.2	38.3	57.4
COc1ccc(/C(C)=C(\c2ccc(Cl)cc2)c2ccc(OCCN3CCCC3)cc2)cc1F	4.24	3.73	7.27	3.77	9.55	0.944	4.54	1.04	3.66	1.23	4.63	4.35	8.94	3.55	7.12	2.5	5.68	3.58	8.13	10.7
O=[N+]([O-])c1cc(CCl)ccc1CCl	–	–	3.38	–	11.4	–	7.49	–	4.12	–	3.51	–	3.98	–	2.97	–	4.54	–	8.23	3.14
Cc1cccc2c(N=Nc3ccc(S(N)(=O)=O)cc3)c(O)[nH]c12	> 25	> 25	> 25	> 25	> 25	> 25	> 25	> 25	> 25	> 25	> 25	> 25	> 25	> 25	> 25	> 25	> 25	> 25	> 25	> 25
COc1cc(C#N)cc(OC)c1OCCOCCOc1c(OC)cc(C#N)cc1OC	38.8	> 100	> 100	> 100	> 100	11.7	37.1	> 100	> 100	58.1	> 100	31.2	> 100	> 100	> 100	> 100	> 100	> 100	> 100	> 100
Clc1cc(Cl)c(Cl)c(-c2nc(-c3cccnc3)cs2)c1	8.52	40.2	> 100	18.6	55.5	> 100	> 100	16	37.6	18.8	51.4	9.22	38.3	24.9	> 100	9.34	23.6	20.5	56.6	42
O=c1cc(-c2ccc(Cl)cc2)[nH]c2ncccc12	–	–	> 100	–	> 100	–	76.1	–	> 100	–	> 100	–	> 100	–	> 100	–	> 100	–	> 100	> 100
O=C(Nc1n[nH]c2nc(-c3ccco3)ccc12)C1CC1	> 25	> 25	> 25	> 25	> 25	> 25	> 25	> 25	> 25	> 25	> 25	> 25	> 25	> 25	> 25	> 25	> 25	> 25	> 25	> 25
COc1cc(/C=C2\CN(C)C/C(=C\c3cc(OC)c(OC)c(OC)c3)C2=O)cc(OC)c1OC	0.271	–	–	1.01	> 63.5	0.334	> 100	0.141	0.37	0.209	0.435	0.234	0.624	0.267	0.833	0.347	1.42	0.247	0.771	1.13
COc1cc(/C=C/C(=O)c2ccc(Nc3ncnc4ccccc34)cc2)cc(OC)c1	4.04	51.9	> 100	8.21	69.8	–	–	1.85	4.16	23.8	> 100	6.69	30.1	7.3	38	2.38	9.68	8.4	24.4	22.8
COc1ccc(-c2cnc3ccnn3c2-c2cc(OC)c(OC)c(OC)c2)cc1	3.52	–	–	2.37	> 100	0.706	> 100	5.96	> 100	5.41	> 100	0.857	> 100	5.4	> 100	2.36	> 100	27.3	> 100	> 100

— PubChem BioAssay (NCI)
